pIC50: −log10 of the molar value. Positions of bridges follow the written chain, without caps; N, C: chain ends. Non-standard residues stand in square brackets, D forms with d. Residues, ends and D or L forms follow the SMILES beside them. *: point of attachment. hPhe(3-Cl-4-CF3) = N[C@@H](CCc1ccc(C(F)(F)F)c(Cl)c1)C(=O)O; NMePhe(4-CF3) = CN[C@@H](Cc1ccc(C(F)(F)F)cc1)C(=O)O; 3Oxa8azabicyclo(3.2.1)octane = C1CC2COCC1N2*; NMePhe(4-Me) = CN[C@@H](Cc1ccc(C)cc1)C(=O)O; NMeAla(cPent) = CN[C@@H](CC1CCCC1)C(=O)O; NMeCha = CN[C@@H](CC1CCCCC1)C(=O)O; NMeChg = CN[C@H](C(=O)O)C1CCCCC1; NMeI = CC[C@H](C)[C@H](NC)C(=O)O; Gly(cBu) = N[C@H](C(=O)O)C1CCC1; N(CH2CH2)2CF2 = FC1(F)CCN(*)CC1; NMeD = CN[C@@H](CC(=O)O)C(=O)O; NMeL = CN[C@@H](CC(C)C)C(=O)O; NMeNva = CCC[C@H](NC)C(=O)O; NMeAbu = CC[C@H](NC)C(=O)O; NMeS = CN[C@@H](CO)C(=O)O; Morpholide = C1CN(*)CCO1; NMeA = CN[C@@H](C)C(=O)O; Pyrrolidide = C1CCN(*)C1; Ac5c = NC1(C(=O)O)CCCC1; Aze = O=C(O)[C@@H]1CCN1; Sar = CNCC(=O)O; Propyl = CCC*

A word on the pIC50: it is the negative decadic logarithm of the IC50, by convention in mol/L.

The target in assay [1] is T1, Kras and SOS1 (biotin-tagged human Kras loaded with GDP, His-tagged human SOS1) (Homo sapiens, UniProt P01116, G12D).
T1 construct: made in house; host or cells: E. coli (stated for Kras only)
The experiment in a line: Protein-protein interaction inhibition between Kras and SOS1 (KrasGl2D-SOS PPI) using AlphaScreen. In kind it is binding. The following applies: AlphaScreen; biotin-tagged human Kras loaded with GDP, His-tagged human SOS1; read-out: KRAS G12D-SOS PPI IC50. The essentials:
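Binding between SOS1 and Kras is detected as bead-proximity luminescence: illuminate Ni-conjugated donors (680 nm), collect 520-620 nm emission from streptavidin-conjugated acceptors; Kras carries biotin and GDP loaded after purification, SOS1 carries a His tag.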

The test system of assay [2] is Human pancreatic cancer cell line AsPC-1. The experiment in a line: Measurement of AsPC-1 cell growth inhibition (AsPC-1 CGI). In kind it is cell-based. The following applies: 96 h. The method, boiled down:
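AsPC-1 cells in 15% FBS RPMI-1640 were exposed to test compound for 96 hours at 37° C, with CellTiter-Glo as endpoint.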

T1 sequence (P01116 1-188 isoform P01116-2 G12D): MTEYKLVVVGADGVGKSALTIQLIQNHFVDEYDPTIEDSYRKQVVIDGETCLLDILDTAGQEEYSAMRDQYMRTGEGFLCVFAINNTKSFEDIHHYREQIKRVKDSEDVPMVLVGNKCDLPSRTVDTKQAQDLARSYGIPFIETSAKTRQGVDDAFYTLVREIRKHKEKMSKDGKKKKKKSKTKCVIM

Take `CCCOC[C@H]1C(=O)N(C)CC(=O)N[C@@H](CCc2ccc(C(F)(F)F)c(Cl)c2)C(=O)N2CCC[C@H]2C(=O)NC2(CCCC2)C(=O)N(C)[C@@H](C2CCCCC2)C(=O)N(C)[C@H](C(=O)N2C3CCC2COC3)CC(=O)N(C)[C@@H](CCC)C(=O)N[C@@H]([C@@H](C)CC)C(=O)N(C)CC(=O)N(C)CC(=O)N1C` [Compound 1971] ([NMeNva]I[Sar][Sar][NMeS](Propyl)[Sar][hPhe(3-Cl-4-CF3)]P[Ac5c][NMeChg][NMeD]-{3Oxa8azabicyclo(3.2.1)octane}; lactam N-11): the pIC50 was 8.96 in assay [1] and 6.30 to 7.00 in assay [2].
For `CCC[C@H]1C(=O)N[C@@H]([C@@H](C)CC)C(=O)N(C)CC(=O)N(C)CC(=O)N(C)[C@@H](Cc2ccc(C(F)(F)F)cc2)C(=O)N(C)CC(=O)N[C@@H](CCc2ccc(C(F)(F)F)c(Cl)c2)C(=O)N2CCC[C@H]2C(=O)NC2(CCCC2)C(=O)N(C)[C@@H](C2CCCCC2)C(=O)N(C)[C@H](C(=O)N2CCOCC2)CC(=O)N1C` [Compound 1972] ([NMeNva]I[Sar][Sar][NMePhe(4-CF3)][Sar][hPhe(3-Cl-4-CF3)]P[Ac5c][NMeChg][NMeD]-Morpholide; lactam N-11) the same measures were 9.43 and 7.30 to 7.70.
The matching figures for `CCC[C@H]1C(=O)N[C@@H]([C@@H](C)CC)C(=O)N(C)CC(=O)N(C)CC(=O)N(C)[C@@H](CC2CCCC2)C(=O)N(C)CC(=O)N[C@@H](CCc2ccc(C(F)(F)F)c(Cl)c2)C(=O)N2CCC[C@H]2C(=O)NC2(CCCC2)C(=O)N(C)[C@@H](C2CCCCC2)C(=O)N(C)[C@H](C(=O)N2CCCC2)CC(=O)N1C` [Compound 1975] ([NMeNva]I[Sar][Sar][NMeAla(cPent)][Sar][hPhe(3-Cl-4-CF3)]P[Ac5c][NMeChg][NMeD]-Pyrrolidide; lactam N-11): 9.29 and 7.00 to 7.30.
As for `CC[C@H](C)[C@@H]1NC(=O)[C@H](CC(C)C)N(C)C(=O)C[C@@H](C(=O)N2C3CCC2COC3)N(C)C(=O)[C@H](C2CCCCC2)N(C)C(=O)C2(CCCC2)NC(=O)[C@@H]2CCCN2C(=O)[C@H](CCc2ccc(C(F)(F)F)c(Cl)c2)NC(=O)CN(C)C(=O)[C@H](CC2CCCC2)N(C)C(=O)CN(C)C(=O)CN(C)C1=O` [Compound 1976] ([NMeL]I[Sar][Sar][NMeAla(cPent)][Sar][hPhe(3-Cl-4-CF3)]P[Ac5c][NMeChg][NMeD]-{3Oxa8azabicyclo(3.2.1)octane}; lactam N-11), the pIC50 in assay [1] is 8.82; in assay [2], 6.30 to 7.00.
For the molecule `CC[C@H](C)[C@@H]1NC(=O)[C@H](CC(C)C)N(C)C(=O)C[C@@H](C(=O)N2CCCC2)N(C)C(=O)[C@H](C2CCCCC2)N(C)C(=O)C2(CCCC2)NC(=O)[C@@H]2CCCN2C(=O)[C@H](CCc2ccc(C(F)(F)F)c(Cl)c2)NC(=O)CN(C)C(=O)[C@H](Cc2ccc(C(F)(F)F)cc2)N(C)C(=O)CN(C)C(=O)CN(C)C1=O` [Compound 1978] ([NMeL]I[Sar][Sar][NMePhe(4-CF3)][Sar][hPhe(3-Cl-4-CF3)]P[Ac5c][NMeChg][NMeD]-Pyrrolidide; lactam N-11), the pIC50 in assay [1] is 9.29; in assay [2] it was 7.30 to 7.70.
The matching figures for `CC[C@H](C)[C@@H]1NC(=O)[C@H](CC(C)C)N(C)C(=O)C[C@@H](C(=O)N(C)C)N(C)C(=O)[C@H]([C@@H](C)CC)N(C)C(=O)C2(CCCC2)NC(=O)[C@H](CC(=O)N2CCC(F)(F)CC2)N(C)C(=O)[C@H](CCc2ccc(C(F)(F)F)c(Cl)c2)NC(=O)CN(C)C(=O)[C@H](Cc2ccc(C)cc2)N(C)C(=O)[C@@H]2CCN2C(=O)[C@H](C)N(C)C1=O` [Compound 1980] ([NMeL]I[NMeA][Aze][NMePhe(4-Me)][Sar][hPhe(3-Cl-4-CF3)][NMeD](N(CH2CH2)2CF2)[Ac5c][NMeI][NMeD]-NMe2; lactam N-11): 8.82 and 6.30 to 7.00.
For `CCC[C@H]1C(=O)N[C@@H]([C@@H](C)CC)C(=O)N(C)CC(=O)N(C)CC(=O)N(C)[C@@H](Cc2ccc(C(F)(F)F)cc2)C(=O)N(C)CC(=O)N[C@@H](CCc2ccc(C(F)(F)F)c(Cl)c2)C(=O)N2CCC[C@H]2C(=O)NC2(CCCC2)C(=O)N(C)[C@@H](C2CCCCC2)C(=O)N(C)[C@H](C(=O)N2C3CCC2COC3)CC(=O)N1C` [Compound 1983] ([NMeNva]I[Sar][Sar][NMePhe(4-CF3)][Sar][hPhe(3-Cl-4-CF3)]P[Ac5c][NMeChg][NMeD]-{3Oxa8azabicyclo(3.2.1)octane}; lactam N-11) the same measures were 9.17 and 7.30 to 7.70.
`CCC[C@H]1C(=O)N[C@@H]([C@@H](C)CC)C(=O)N(C)CC(=O)N(C)CC(=O)N(C)[C@@H](Cc2ccc(C(F)(F)F)cc2)C(=O)N(C)CC(=O)N[C@@H](CCc2ccc(C(F)(F)F)c(Cl)c2)C(=O)N2CCC[C@H]2C(=O)NC2(CCCC2)C(=O)N(C)[C@@H](C2CCCCC2)C(=O)N(C)[C@H](C(=O)N2CCCC2)CC(=O)N1C` [Compound 1984] ([NMeNva]I[Sar][Sar][NMePhe(4-CF3)][Sar][hPhe(3-Cl-4-CF3)]P[Ac5c][NMeChg][NMeD]-Pyrrolidide; lactam N-11): the results for the pIC50 in assay [1] and in assay [2] were 9.42 and 7.30 to 7.70, respectively.
For `CC(C)C[C@H]1C(=O)N[C@@H](C2CCC2)C(=O)N(C)CC(=O)N(C)CC(=O)N(C)[C@@H](CC2CCCCC2)C(=O)N(C)CC(=O)N[C@@H](CCc2ccc(C(F)(F)F)c(Cl)c2)C(=O)N2CCC[C@H]2C(=O)NC2(CCCC2)C(=O)N(C)[C@@H](C2CCCCC2)C(=O)N(C)[C@H](C(=O)N2CCCC2)CC(=O)N1C` [Compound 1988] ([NMeL][Gly(cBu)][Sar][Sar][NMeCha][Sar][hPhe(3-Cl-4-CF3)]P[Ac5c][NMeChg][NMeD]-Pyrrolidide; lactam N-11) the same measures were 9.16 and 7.00 to 7.30.
For the molecule `CC[C@H](C)[C@@H]1NC(=O)[C@H](CC)N(C)C(=O)C[C@@H](C(=O)N2C3CCC2COC3)N(C)C(=O)[C@H](C2CCCCC2)N(C)C(=O)C2(CCCC2)NC(=O)[C@@H]2CCCN2C(=O)[C@H](CCc2ccc(C(F)(F)F)c(Cl)c2)NC(=O)CN(C)C(=O)[C@H](Cc2ccc(C(F)(F)F)cc2)N(C)C(=O)CN(C)C(=O)CN(C)C1=O` [Compound 1993] ([NMeAbu]I[Sar][Sar][NMePhe(4-CF3)][Sar][hPhe(3-Cl-4-CF3)]P[Ac5c][NMeChg][NMeD]-{3Oxa8azabicyclo(3.2.1)octane}; lactam N-11), the values for the pIC50 in assay [1] and in assay [2] were 9.19 and 7.00 to 7.30, respectively.
For `CCC[C@H]1C(=O)N[C@@H]([C@@H](C)CC)C(=O)N(C)CC(=O)N(C)CC(=O)N(C)[C@@H](Cc2ccc(C)cc2)C(=O)N(C)CC(=O)N[C@@H](CCc2ccc(C(F)(F)F)c(Cl)c2)C(=O)N2CCC[C@H]2C(=O)NC2(CCCC2)C(=O)N(C)[C@@H](C2CCCCC2)C(=O)N(C)[C@H](C(=O)N2C3CCC2COC3)CC(=O)N1C` [Compound 1994] ([NMeNva]I[Sar][Sar][NMePhe(4-Me)][Sar][hPhe(3-Cl-4-CF3)]P[Ac5c][NMeChg][NMeD]-{3Oxa8azabicyclo(3.2.1)octane}; lactam N-11) the same measures were 9.24 and 7.00 to 7.30.
On to `CCC[C@H]1C(=O)N[C@@H]([C@@H](C)CC)C(=O)N(C)CC(=O)N(C)CC(=O)N(C)[C@@H](CC2CCCCC2)C(=O)N(C)CC(=O)N[C@@H](CCc2ccc(C(F)(F)F)c(Cl)c2)C(=O)N2CCC[C@H]2C(=O)NC2(CCCC2)C(=O)N(C)[C@@H](C2CCCCC2)C(=O)N(C)[C@H](C(=O)N2CCOCC2)CC(=O)N1C` [Compound 1996] ([NMeNva]I[Sar][Sar][NMeCha][Sar][hPhe(3-Cl-4-CF3)]P[Ac5c][NMeChg][NMeD]-Morpholide; lactam N-11), for which the pIC50 in assay [1] was 9.19; in assay [2] it was 7.30 to 7.70.

(Values after patent US12371454B2, “Cyclic peptide compound having Kras inhibitory action” (priority 2019, dated 2025).)
